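In this assay, cells in 96-well plates receive the compound at five concentrations for 48 hours. Endpoints are linearly interpolated between the surrounding concentrations. At the GI50, growth is halved.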 The source made the active and inactive calls. Cut-off read from the data, not from the text of the source: active = GI50 up to about 1.1 µM and inactive = higher.

Consider twelve compounds from ChEMBL document CHEMBL1201862, “PubChem BioAssay data set” (2004).

Some test systems named below: KM12; LXFL 529; HOP-62; SF-295; UACC-257; NCI-H226; OVCAR-3; SK-MEL-28; HL-60; U-251; HCT-116; DMS-114; NCI-H23; SF-268; MOLT-4; ACHN; RXF 393; PC-3; DU-145; MDA-N.
Common to all, as to experiment: NCI tumour cell line growth inhibition, 48 h

Turning to `O=c1[nH]c2cc(-c3ccccc3)nc-2nn1-c1c(Cl)cc(Cl)cc1Cl`, the GI50 in the test with KM12 was 20.5 µM (inactive); in the test with LXFL 529, 30.5 µM (inactive); in the test on HOP-62, 25.5 µM (inactive); in the test on SF-295, 32.1 µM (inactive); in the test with UACC-257, 29.5 µM (inactive); in the test on NCI-H226, 23.7 µM (inactive). Moreover, the GI50 with OVCAR-3 was 23.2 µM (inactive); with SK-MEL-28 it was > 100 µM (inactive); in the test with HL-60, 20.5 µM (inactive); in the test with U-251, 19.1 µM (inactive); in the test on HCT-116, 22.4 µM (inactive); with DMS-114 it was > 100 µM (inactive). For the same compound, the values for the GI50 with NCI-H23, in the test with SF-268 and in the test with MOLT-4 were 24.9 µM (inactive), > 100 µM (inactive) and 22.5 µM (inactive), respectively.
As for `C[C@]12CC[C@H](OC(=O)Nc3ccccc3)CC1=CC[C@@H]1C2CC[C@]2(C)/C(=N/OC(=O)Nc3ccccc3)CCC12` (some centres undefined), the GI50 was 8.15 µM (inactive) in the test with KM12; 1.12 µM (inactive) in the test with LXFL 529; 10 µM (inactive) with SF-295; > 100 µM (inactive) with OVCAR-3; 5.82 µM (inactive) with HL-60; 43.7 µM (inactive) in the test on U-251. For the same compound, the GI50 with HCT-116 was 4.18 µM (inactive); in the test on DMS-114, 2.71 µM (inactive); in the test on NCI-H23, > 100 µM (inactive); with ACHN, 7.14 µM (inactive); in the test with SF-268 it was 7.94 µM (inactive); with MOLT-4 it was 5.05 µM (inactive).
Consider `COCCCNC(=O)C1C(=O)C(=O)N(CCCOC)C1=O` (centres undefined), for which the GI50 in the test with LXFL 529, with HOP-62, with SF-295, in the test with UACC-257, in the test with NCI-H226 and in the test on OVCAR-3 was > 100 µM (inactive) in each case. Further, the GI50 in the test on SK-MEL-28, with HL-60, in the test on U-251, with HCT-116, in the test with DMS-114 and in the test on NCI-H23 was > 100 µM (inactive) throughout. Further, the GI50 in the test on ACHN, in the test on SF-268 and with MOLT-4 was > 100 µM (inactive) each time.
`CC(C)C1N2CCCCC2[C@@H]2c3[nH]c4ccccc4c3CCN12` (some centres undefined): the GI50 with LXFL 529, with HOP-62, in the test on SF-295, with UACC-257, with OVCAR-3 and in the test on RXF 393 was > 100 µM (inactive) each time. In addition, the GI50 in the test with SK-MEL-28, in the test on HL-60, in the test with U-251, in the test with HCT-116, in the test on DMS-114 and with NCI-H23 was > 100 µM (inactive) throughout. Moreover, the GI50 with ACHN, in the test with SF-268 and in the test on MOLT-4 was > 100 µM (inactive) each time.
For the compound `CC(=O)NC(CCCCN(Cc1ccccc1)C(=O)N(C)N=O)C(=O)NCc1ccccc1` (centres undefined), the GI50 in the test with KM12 is > 100 µM (inactive); in the test on LXFL 529, 51.5 µM (inactive); in the test on HOP-62 it was > 100 µM (inactive); with SF-295, > 100 µM (inactive); with UACC-257 it was > 100 µM (inactive); in the test on NCI-H226 it was 36.5 µM (inactive). The GI50 with OVCAR-3 was > 100 µM (inactive); with RXF 393, 72.1 µM (inactive); with SK-MEL-28 it was > 100 µM (inactive); with U-251, > 100 µM (inactive); in the test on HCT-116, 71.3 µM (inactive); with DMS-114 it was 43.6 µM (inactive). In addition, the GI50 with NCI-H23 is > 100 µM (inactive); with ACHN, > 100 µM (inactive); in the test on SF-268 it was 38.9 µM (inactive); with MOLT-4, 39.6 µM (inactive).
For `COc1cc(Cl)c2c3c(c(C(C)=O)oc13)CCC2`, the GI50 was > 100 µM (inactive) in the test with LXFL 529; > 100 µM (inactive) in the test on HOP-62; > 100 µM (inactive) in the test on SF-295; > 100 µM (inactive) in the test on UACC-257; > 100 µM (inactive) with OVCAR-3; 85.1 µM (inactive) in the test on RXF 393. In addition, the GI50 with SK-MEL-28, in the test on HL-60, in the test with U-251, with HCT-116, in the test with DMS-114 and in the test on NCI-H23 was > 100 µM (inactive) each time. Besides, the GI50 in the test on ACHN was > 100 µM (inactive).
For the compound `N=C(N)N/N=C(/CC1OC(=O)c2ccccc21)c1ccc2ccccc2c1` (centres undefined), the GI50 in the test on KM12 was 12.9 µM (inactive); with LXFL 529, 14.6 µM (inactive); in the test on HOP-62, 18.5 µM (inactive); in the test with SF-295, 23.8 µM (inactive); with UACC-257 it was 14.6 µM (inactive); in the test on NCI-H226, 13.7 µM (inactive). Besides, the GI50 was 17.5 µM (inactive) in the test on OVCAR-3; 18.6 µM (inactive) in the test on SK-MEL-28; 17.8 µM (inactive) in the test on HL-60; 14.6 µM (inactive) in the test with U-251; 12.9 µM (inactive) in the test on DMS-114; 26.2 µM (inactive) in the test with NCI-H23. Moreover, the GI50 in the test with ACHN is 18.9 µM (inactive); in the test on SF-268 it was 13.6 µM (inactive); in the test on MOLT-4, 23.6 µM (inactive).
Regarding `CC(O)C(NC(=O)C(CS)NC(=O)C(CO)NC(=O)C(CCCCN)NC(=O)C(Cc1c[nH]c2ccccc12)NC(=O)C(Cc1ccc(O)cc1)NC(=O)C(CS)NC(=O)C(N)Cc1ccccc1)C(N)=O` (centres undefined), the GI50 in the test on PC-3, in the test on KM12, in the test on HOP-62, in the test on SF-295, in the test with UACC-257 and with NCI-H226 was > 25 µM (inactive) each time. For the same compound, the GI50 in the test with OVCAR-3 is > 25 µM (inactive); in the test on DU-145, > 25 µM (inactive); with RXF 393, > 25 µM (inactive); in the test on SK-MEL-28 it was 26.9 µM (inactive); with HL-60, > 25 µM (inactive); in the test with U-251 it was > 25 µM (inactive). Further, the GI50 with MDA-N is > 25 µM (inactive); with HCT-116, > 25 µM (inactive); in the test on DMS-114, 35.8 µM (inactive); in the test on NCI-H23, > 25 µM (inactive); in the test with ACHN, > 25 µM (inactive); with SF-268, > 25 µM (inactive). Further, in the test on MOLT-4, the GI50 is > 25 µM (inactive).
`O=C(Cc1nc2ccccc2o1)C(=O)Nc1cccc(C(F)(F)F)c1`: the GI50 with KM12, in the test with LXFL 529, in the test on HOP-62, with SF-295, in the test with UACC-257 and in the test on NCI-H226 was > 100 µM (inactive) in each case. The GI50 with OVCAR-3, in the test with SK-MEL-28, in the test with HL-60, in the test on U-251, in the test on HCT-116 and in the test on DMS-114 was > 100 µM (inactive) in each case. Further, the GI50 with NCI-H23, in the test with ACHN, with SF-268 and in the test on MOLT-4 was > 100 µM (inactive) each time.
For `COc1cc(-c2cc(=O)c3c(O)c(OC)c(OC)c(OC)c3o2)ccc1O`, the GI50 was 29.9 µM (inactive) in the test with KM12; 16.6 µM (inactive) in the test on LXFL 529; 21.6 µM (inactive) with HOP-62; 23.4 µM (inactive) with SF-295; 20.7 µM (inactive) with UACC-257; 32.1 µM (inactive) in the test with OVCAR-3. For the same compound, the GI50 is 13 µM (inactive) in the test on RXF 393; 23.5 µM (inactive) in the test on SK-MEL-28; 31.3 µM (inactive) with HL-60; 8.97 µM (inactive) in the test on U-251; 24.8 µM (inactive) with HCT-116; 23.9 µM (inactive) in the test on DMS-114. For the same compound, the GI50 in the test on NCI-H23 is 27.7 µM (inactive); with ACHN, 21.4 µM (inactive); in the test with SF-268 it was 26.5 µM (inactive); in the test with MOLT-4, 23.1 µM (inactive).
Take `COc1cc(/C=C\c2ccc(Br)cc2)cc(OC)c1OC`: the GI50 was 0.000612 µM (active) with KM12; 0.000891 µM (active) with LXFL 529; 0.01 µM (active) in the test with HOP-62; 0.000296 µM (active) in the test with SF-295; 0.000414 µM (active) in the test on UACC-257; 0.0014 µM (active) in the test with NCI-H226. The GI50 in the test with OVCAR-3 was 0.000341 µM (active); in the test on SK-MEL-28 it was 0.1 µM (active); in the test on HL-60, 0.000318 µM (active); in the test with U-251 it was 0.000463 µM (active); in the test on HCT-116 it was 0.000515 µM (active); with DMS-114, 0.000986 µM (active). Besides, the GI50 is 0.000904 µM (active) in the test on NCI-H23, 0.000794 µM (active) in the test on ACHN, 0.000792 µM (active) in the test with SF-268 and 0.000662 µM (active) in the test with MOLT-4.
On to `CC[C@@H](C(=O)[C@@H](C)[C@@H](O)[C@H](C)CCc1ccc(C)c(O)c1C(=O)O)[C@H]1O[C@](CC)([C@H]2CC[C@](O)(CC)[C@H](C)O2)C[C@@H]1C` [LASALOCID A SODIUM], for which the GI50 in the test on KM12 is 1.84 µM (inactive); with LXFL 529, 1.18 µM (inactive); with HOP-62 it was 1.38 µM (inactive); with SF-295, 1.56 µM (inactive); with UACC-257 it was 2.99 µM (inactive); in the test on NCI-H226, 3.05 µM (inactive). Moreover, the GI50 in the test on OVCAR-3 was 0.637 µM (active); with SK-MEL-28, 1.3 µM (inactive); with HL-60, 0.348 µM (active); in the test with U-251, 1.34 µM (inactive); in the test on HCT-116 it was 1.48 µM (inactive); in the test on DMS-114, 0.946 µM (active). Further, the GI50 with NCI-H23 was 1.39 µM (inactive); in the test on ACHN, 2.64 µM (inactive); in the test with SF-268, 2.21 µM (inactive); in the test with MOLT-4, 1.1 µM (active).
